Article PMC10712727, “Safety, Tolerability, and Pharmacokinetics of Senaparib, a Novel PARP1/2 Inhibitor, in Chinese Patients With Advanced Solid Tumors: A Phase I Trial” (The Oncologist, 2023)

System: patients with advanced solid tumors
Assay: Safety: treatment-emergent and senaparib-related adverse events graded per NCI CTCAE v4.03
Assay type: in vivo
Settings: TEAE
Description: This phase I, open-label, multicenter, dose-escalation, and dose-expansion study was conducted at three national clinical institutions in China. […] At baseline, all patients enrolled in the dose-escalation phase had to have at least one evaluable lesion, and those in the dose-expansion period had to have at least one measurable lesion, according to Response Evaluation Criteria in Solid Tumors version 1.1 (RECIST v1.1).[16] Entry to the dose-expansion cohort required the presence of a BRCA mutation, with the exception of patients with ovarian carcinoma, fallopian tube carcinoma, and primary peritoneal carcinoma. Full study eligibility criteria are provided in Supplementary Table S1.
Dose escalation was conducted using a modified Fibonacci 3 + 3 method (Supplementary Fig. S1).[17] Patients were administered oral senaparib from a planned starting dose of 2 mg once daily (QD), with preliminary dose escalation to 120 mg via nine dose groups, in order of their entry into the study. At a given dose level, each patient received a single dose of senaparib followed by a 7-day washout period. They then entered a continuous dosing period to confirm the safety and PK profile, in which they received senaparib QD from day 1 to day 21 of each 3-week cycle. Progression to the next higher dose required approval from the Data Safety Monitoring Committee (DSMC) upon review of the safety and PK data of the previous dose. A 50-mg twice-daily (BID) dosing group was added (planned enrollment, n = 6 patients) based on a DSMC review of the safety, PK, and efficacy analysis of the completed QD dose groups in the phase I clinical trial of senaparib dose escalation in Australia (NCT03507543), which commenced prior to the start of this trial.
The dose-expansion period included 3 populations: dose groups in which at least one patient achieved complete response (CR) or partial response (PR) per RECIST v1.1[16] and 1 dose group higher (evaluated for safety), as well as the dose group at the maximum tolerated dose (MTD)/recommended phase II dose (RP2D). Each of these groups included those patients in the respective dose-escalation group plus a planned additional 10 patients (approximately 20 patients in the MTD/RP2D group) with BRCA^mut+ solid tumors (ovarian, breast, or prostate cancer were preferred, and ovarian cancer could be BRCA wild type). Patients received senaparib monotherapy orally QD or BID (50-mg dose only) over each 3-week cycle until disease progression or unacceptable toxicity.
DLTs were predefined toxicities (Supplementary Table S2) recorded over the 7 days following the single-dose administration of senaparib and during the first treatment cycle (day 1-day 21) for each dose group in the dose-escalation period only. The MTD was defined as the maximum dose at which ≤1/6 patients experienced a DLT. Senaparib PK parameters were derived from blood samples collected from patients after the single administration, and at regular intervals during the first cycle of the dose-escalation and dose-expansion periods. Plasma concentrations of senaparib were determined using high-performance liquid chromatography-tandem mass spectrometry. Tumor response was assessed every 6 weeks per RECIST v1.1,[16] recording objective response rate (ORR), disease control rate (DCR), duration of response (DOR), and progression-free survival (PFS) by dose level for all patients and for those harboring BRCA^mut+ tumors.

O=C(c1cc(Cn2c(=O)[nH]c(=O)c3c(F)cccc32)ccc1F)N1CCN(c2ncccn2)CC1 [Senaparib]
2 (10.0) n (%): Blood creatinine increased, All (100 mg QD n = 20) | Hyponatremia, All (100 mg QD n = 20) | Neutrophil count decreased, Gr≥3 (100 mg QD n = 20) | Pain in extremity, All (100 mg QD n = 20) | Protein in urine, All (100 mg QD n = 20)
1 (11.1) n (%): ALT increased, All (80 mg QD n = 9) | Hyponatremia, All (80 mg QD n = 9) | Neutrophil count decreased, Gr≥3 (80 mg QD n = 9) | Vomiting, Gr≥3 (80 mg QD n = 9) | WBC decreased, Gr≥3 (80 mg QD n = 9)
7 (77.8) n (%): Anemia (incl. hemoglobin decreased), All (80 mg QD n = 9)
2 (40.0) n (%): Platelet count decreased, All (60 mg QD n = 5) | WBC decreased, All (60 mg QD n = 5)
2 (22.2) n (%): AST increased, All (80 mg QD n = 9) | Asthenia, All (80 mg QD n = 9) | Blood bilirubin increased, All (80 mg QD n = 9) | Blood creatinine increased, All (80 mg QD n = 9) | Pain in extremity, All (80 mg QD n = 9) | Platelet count decreased, Gr≥3 (80 mg QD n = 9)
9 (45.0) n (%): WBC decreased, All (100 mg QD n = 20)
6 (30.0) n (%): Platelet count decreased, All (100 mg QD n = 20)
3 (33.3) n (%): Abdominal distension, All (80 mg QD n = 9) | Anemia (incl. hemoglobin decreased), Gr≥3 (80 mg QD n = 9) | Appetite decreased, All (80 mg QD n = 9) | Hypokalemia, All (80 mg QD n = 9) | Vomiting, All (80 mg QD n = 9)
3 (15.0) n (%): Blood bilirubin increased, All (100 mg QD n = 20)
0 n (%): Asthenia, Gr≥3 (60 mg QD n = 5) | Blood bilirubin increased, All (60 mg QD n = 5) | Blood bilirubin increased, Gr≥3 (60 mg QD n = 5) | Blood creatinine increased, Gr≥3 (60 mg QD n = 5) | Hypokalemia, Gr≥3 (60 mg QD n = 5) | Hyponatremia, Gr≥3 (60 mg QD n = 5) | Nausea, Gr≥3 (60 mg QD n = 5) | Neutrophil count decreased, Gr≥3 (60 mg QD n = 5) | Pain in extremity, All (60 mg QD n = 5) | Pain in extremity, Gr≥3 (60 mg QD n = 5) | Platelet count decreased, Gr≥3 (60 mg QD n = 5) | Protein in urine, Gr≥3 (60 mg QD n = 5) | WBC decreased, Gr≥3 (60 mg QD n = 5) | ALT increased, Gr≥3 (80 mg QD n = 9) | AST increased, Gr≥3 (80 mg QD n = 9) | Abdominal distension, Gr≥3 (80 mg QD n = 9) | Appetite decreased, Gr≥3 (80 mg QD n = 9) | Asthenia, Gr≥3 (80 mg QD n = 9) | Blood bilirubin increased, Gr≥3 (80 mg QD n = 9) | Blood creatinine increased, Gr≥3 (80 mg QD n = 9) | Hypokalemia, Gr≥3 (80 mg QD n = 9) | Hyponatremia, Gr≥3 (80 mg QD n = 9) | Nausea, Gr≥3 (80 mg QD n = 9) | Pain in extremity, Gr≥3 (80 mg QD n = 9) | Protein in urine, All (80 mg QD n = 9) | Protein in urine, Gr≥3 (80 mg QD n = 9) | ALT increased, Gr≥3 (100 mg QD n = 20) | Abdominal distension, All (100 mg QD n = 20) | Abdominal distension, Gr≥3 (100 mg QD n = 20) | Appetite decreased, Gr≥3 (100 mg QD n = 20) | Asthenia, Gr≥3 (100 mg QD n = 20) | Blood bilirubin increased, Gr≥3 (100 mg QD n = 20) | Blood creatinine increased, Gr≥3 (100 mg QD n = 20) | Hypokalemia, All (100 mg QD n = 20) | Hypokalemia, Gr≥3 (100 mg QD n = 20) | Hyponatremia, Gr≥3 (100 mg QD n = 20) | Nausea, Gr≥3 (100 mg QD n = 20) | Pain in extremity, Gr≥3 (100 mg QD n = 20) | Protein in urine, Gr≥3 (100 mg QD n = 20) | Vomiting, Gr≥3 (100 mg QD n = 20) | AST increased, Gr≥3 (120 mg QD n = 4) | Abdominal distension, All (120 mg QD n = 4) | Abdominal distension, Gr≥3 (120 mg QD n = 4) | Appetite decreased, Gr≥3 (120 mg QD n = 4) | Asthenia, Gr≥3 (120 mg QD n = 4) | Blood creatinine increased, Gr≥3 (120 mg QD n = 4) | Hypokalemia, All (120 mg QD n = 4) | Hypokalemia, Gr≥3 (120 mg QD n = 4) | Hyponatremia, All (120 mg QD n = 4) | Hyponatremia, Gr≥3 (120 mg QD n = 4) | Nausea, Gr≥3 (120 mg QD n = 4) | Neutrophil count decreased, Gr≥3 (120 mg QD n = 4)
11 (55.0) n (%): Anemia (incl. hemoglobin decreased), All (100 mg QD n = 20)
5 (25.0) n (%): ALT increased, All (100 mg QD n = 20) | Appetite decreased, All (100 mg QD n = 20) | Asthenia, All (100 mg QD n = 20) | Neutrophil count decreased, All (100 mg QD n = 20) | Vomiting, All (100 mg QD n = 20)
1 (20.0) n (%): Blood creatinine increased, All (60 mg QD n = 5) | Hypokalemia, All (60 mg QD n = 5) | Hyponatremia, All (60 mg QD n = 5) | Nausea, All (60 mg QD n = 5) | Neutrophil count decreased, All (60 mg QD n = 5) | Protein in urine, All (60 mg QD n = 5) | Vomiting, All (60 mg QD n = 5) | Vomiting, Gr≥3 (60 mg QD n = 5)
4 (44.4) n (%): Nausea, All (80 mg QD n = 9) | Neutrophil count decreased, All (80 mg QD n = 9) | Platelet count decreased, All (80 mg QD n = 9)
1 (5.0) n (%): AST increased, Gr≥3 (100 mg QD n = 20) | Platelet count decreased, Gr≥3 (100 mg QD n = 20) | WBC decreased, Gr≥3 (100 mg QD n = 20)
4 (20.0) n (%): AST increased, All (100 mg QD n = 20) | Anemia (incl. hemoglobin decreased), Gr≥3 (100 mg QD n = 20) | Nausea, All (100 mg QD n = 20)
1 (25.0) n (%): ALT increased, Gr≥3 (120 mg QD n = 4) | Anemia (incl. hemoglobin decreased), Gr≥3 (120 mg QD n = 4) | Appetite decreased, All (120 mg QD n = 4) | Blood bilirubin increased, Gr≥3 (120 mg QD n = 4) | Blood creatinine increased, All (120 mg QD n = 4) | Nausea, All (120 mg QD n = 4) | Neutrophil count decreased, All (120 mg QD n = 4) | Pain in extremity, All (120 mg QD n = 4)
3 (75.0) n (%): Anemia (incl. hemoglobin decreased), All (120 mg QD n = 4)
5 (55.6) n (%): WBC decreased, All (80 mg QD n = 9)
2 (50.0) n (%): ALT increased, All (120 mg QD n = 4) | AST increased, All (120 mg QD n = 4) | Asthenia, All (120 mg QD n = 4) | Blood bilirubin increased, All (120 mg QD n = 4)
